# In patent US20160169918A1, “Methods of Diagnosis and Treatment for Pulmonary Arterial Hypertension” (THE REGENTS OF THE UNIVERSITY OF CALIFORNIA, priority 2013, published 2016):
# T1: adenosine 2B receptor (A2BR) (Homo sapiens, UniProt P29275)
# T1 sequence (P29275 1-332): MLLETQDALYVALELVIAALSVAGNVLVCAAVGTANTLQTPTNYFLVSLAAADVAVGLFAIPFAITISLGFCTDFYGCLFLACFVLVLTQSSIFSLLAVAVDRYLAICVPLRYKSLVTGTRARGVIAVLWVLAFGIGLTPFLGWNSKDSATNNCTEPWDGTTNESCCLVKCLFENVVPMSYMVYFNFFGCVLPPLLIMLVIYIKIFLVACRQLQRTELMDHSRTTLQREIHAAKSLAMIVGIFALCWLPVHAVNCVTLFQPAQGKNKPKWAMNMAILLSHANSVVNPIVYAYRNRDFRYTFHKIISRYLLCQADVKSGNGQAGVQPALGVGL
# T2: oxytocin receptor (Homo sapiens, UniProt P30559)
# T2 construct: the oxytocin receptor is expressed on the membrane of Ctrl-PASMCs; endogenous in cells; host or cells: Ctrl-PASMCs (primary human pulmonary artery smooth muscle cells)
# T2 sequence (P30559 1-389): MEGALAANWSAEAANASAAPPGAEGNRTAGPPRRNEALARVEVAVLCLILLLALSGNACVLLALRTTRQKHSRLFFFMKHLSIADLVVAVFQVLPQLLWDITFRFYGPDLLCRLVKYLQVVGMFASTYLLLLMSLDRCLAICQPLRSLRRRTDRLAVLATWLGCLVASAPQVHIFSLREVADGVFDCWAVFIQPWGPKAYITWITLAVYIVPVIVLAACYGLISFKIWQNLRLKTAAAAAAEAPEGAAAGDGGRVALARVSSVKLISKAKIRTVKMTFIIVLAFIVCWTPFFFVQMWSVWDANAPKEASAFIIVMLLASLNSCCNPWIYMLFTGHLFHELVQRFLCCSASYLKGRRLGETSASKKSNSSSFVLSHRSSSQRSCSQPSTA
# T3: gastric inhibitory polypeptide receptor (GIPR) (Homo sapiens, UniProt P48546)
# T3 sequence (P48546 22-466): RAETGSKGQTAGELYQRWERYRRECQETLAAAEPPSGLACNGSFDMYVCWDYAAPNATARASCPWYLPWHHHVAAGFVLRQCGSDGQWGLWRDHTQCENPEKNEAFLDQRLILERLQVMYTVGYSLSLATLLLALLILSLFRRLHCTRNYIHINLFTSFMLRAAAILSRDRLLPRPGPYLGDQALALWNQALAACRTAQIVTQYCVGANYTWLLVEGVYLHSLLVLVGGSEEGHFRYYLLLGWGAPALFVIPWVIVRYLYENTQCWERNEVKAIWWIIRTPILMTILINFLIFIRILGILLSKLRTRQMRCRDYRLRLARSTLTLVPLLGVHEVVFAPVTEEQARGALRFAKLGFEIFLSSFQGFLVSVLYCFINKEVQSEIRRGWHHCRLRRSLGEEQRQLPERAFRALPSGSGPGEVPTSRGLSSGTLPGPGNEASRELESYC
# Columns and labels:
# [1] = biological target: T1, adenosine 2B receptor (A2BR); experiment: cAMP accumulation in response to receptor agonist (cAMP radioimmunoassay) in Ctrl-PASMCs; format: cell-based; details: agonist 1 μM, 10 min treatment
# Protocol: (§1) Control-PASMCs, PAH-PASMCs or HEK 293 cells were seeded at 30,000 cells/well in a 24-well plate. […] 10 uM FSK (alone) was used as a positive control. After the incubations, the media was aspirated and 150 μL of 7.5% trichloroacetic acid (TCA) was added to each well.
# (§2) Assay tubes were filled with 1 mL of 10 mM sodium acetate buffer (pH 4.75) and a standard curve was constructed by serial dilution of stock 5 μM cAMP (Millipore, Billerica, Mass.). An appropriate amount of sample was added to the assay tubes and the samples were acetylated by addition of 20 μL triethylamine (Sigma) and 10 μl acetic anhydride (Sigma). 100 μL of the sodium acetate buffer was added to each well of a 96-well filter plate to prepare the plate and then was removed by vacuum. 50 μL of diluted, acetylated sample was added to each well along with 25 μL diluted antibody [1:1000, 6 μL primary cAMP antibody (Millipore) in 6 mL γ-globulin buffer (100 mg human γ-globulin/100 mL 50 mM NaAc pH 4.75)] and 25 μL diluted ^125I radioactivity [16 acetylated adenosine 3′,5′-cyclic phosphoric acid, 2′-O-succinyl [^125I]-iodotyrosine methyl ester (PerkinElmer) in 3 mL γ-globulin buffer so that 0.001 mCi of ^125I could be added to each sample. The 96-well filter plate containing the sample was incubated overnight at 4° C. […]
# [2] = biological target: vasoactive intestinal peptide receptor 1 (human) (UniProt P32241); experiment: cell-based or functional assay
# Chain of vasoactive intestinal peptide receptor 1 (human) (P32241 31-457): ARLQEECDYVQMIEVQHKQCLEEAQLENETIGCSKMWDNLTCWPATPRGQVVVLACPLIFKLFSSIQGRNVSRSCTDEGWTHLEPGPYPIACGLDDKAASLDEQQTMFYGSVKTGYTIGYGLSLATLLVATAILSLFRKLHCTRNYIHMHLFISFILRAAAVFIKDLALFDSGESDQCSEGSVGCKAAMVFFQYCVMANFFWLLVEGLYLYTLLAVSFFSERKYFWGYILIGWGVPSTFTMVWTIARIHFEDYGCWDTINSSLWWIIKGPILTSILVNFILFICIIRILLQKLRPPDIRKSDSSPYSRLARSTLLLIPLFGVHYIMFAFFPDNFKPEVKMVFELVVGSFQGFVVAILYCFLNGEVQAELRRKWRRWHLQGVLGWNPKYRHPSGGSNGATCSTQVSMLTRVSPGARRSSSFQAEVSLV
# [3] = system: Adult Sprague-Dawley rats; experiment: monocrotaline-treated rat model, right ventricular hypertrophy (Fulton Index); details: MCT 60 mg/kg once intraperitoneally, 2 weeks, control rats 0.20
# Protocol: Adult Sprague-Dawley rats (250-300 g, male) were injected once intraperitoneally with MCT (60 mg/kg) and sacrificed 2 weeks later. Right ventricular hypertrophy was assessed to determine the development of PAH. It was evaluated as the ratio of the weight of the right ventricle to that of the left ventricle plus the septum (Fulton Index). […] This model is commonly used and approved as a valid model of PAH.^42,43 All animals were cared for in compliance with the guiding principles and approved by the UCSD Institutional Animal Care and Use Committee.
# smooth muscle cell = details: after serum stimulation; cited from earlier work
# GPR75 = details: cited from earlier work
# [4] = biological target: prostacyclin receptor (IPR) (Homo sapiens, UniProt P43119); experiment: cAMP accumulation in response to receptor agonist (cAMP radioimmunoassay) in Ctrl-PASMCs; format: cell-based; details: agonist 10 μM, 10 min treatment
# Chain of prostacyclin receptor (IPR) (P43119 whole entry): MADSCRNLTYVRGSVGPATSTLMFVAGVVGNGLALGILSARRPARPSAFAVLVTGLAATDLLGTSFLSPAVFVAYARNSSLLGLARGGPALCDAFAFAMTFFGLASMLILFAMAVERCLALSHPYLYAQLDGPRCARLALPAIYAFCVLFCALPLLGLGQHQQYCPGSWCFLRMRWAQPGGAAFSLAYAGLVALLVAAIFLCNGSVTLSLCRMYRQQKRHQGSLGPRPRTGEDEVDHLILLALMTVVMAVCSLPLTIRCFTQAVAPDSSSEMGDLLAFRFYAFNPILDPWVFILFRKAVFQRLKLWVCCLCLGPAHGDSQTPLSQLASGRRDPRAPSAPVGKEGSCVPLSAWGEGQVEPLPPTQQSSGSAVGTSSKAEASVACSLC
# Protocol: as §1, §2
# Ctrl-PASMCs = experiment: [3H]thymidine incorporation (DNA synthesis, proliferation) of PASMCs with GPCR agonists; format: cell-based, human
# Protocol: GPCR agonists/antagonists/GPR75 antibody in the absence or presence of 200 μM IBMX and [^3H] thymidine (1 μCi/ml) were added to the cells for 24-48 hr. Following incubation, cells were washed with a large volume of cold phosphate buffer saline (PBS) and then twice with a large volume of cold 7.5% TCA. The precipitated material was dissolved with 0.5 M NaOH and combined with 3 mL of scintillation fluid (Ecoscint O, National Diagnostics) and radioactivity was determined using a liquid scintillation counter (Beckman Coulter LS 1801).
# PAH-patients = details: chronic inhalation; n=8 PAH-patients; cited from earlier work
# human PASMCs = details: cited from earlier work
# oxytocin receptor = biological target: T2, oxytocin receptor; experiment: forskolin-stimulated cAMP levels in Ctrl-PASMCs with oxytocin; format: cell-based; details: 0.1 nM-10 μM, 10 min, FIG. 4D
# Protocol: as §1, §2
# [5] = oxytocin 0.2 units/kg; cited from earlier work
# [6] = biological target: gastric inhibitory polypeptide receptor (human) (UniProt P48546); experiment: cell-based or functional assay
# [7] = biological target: prostaglandin E2 receptor (EP2R) (Homo sapiens, UniProt P43116); experiment: cAMP accumulation in response to receptor agonist (cAMP radioimmunoassay) in Ctrl-PASMCs; details: agonist 1 μM, 10 min treatment
# Chain of prostaglandin E2 receptor (EP2R) (P43116 whole entry): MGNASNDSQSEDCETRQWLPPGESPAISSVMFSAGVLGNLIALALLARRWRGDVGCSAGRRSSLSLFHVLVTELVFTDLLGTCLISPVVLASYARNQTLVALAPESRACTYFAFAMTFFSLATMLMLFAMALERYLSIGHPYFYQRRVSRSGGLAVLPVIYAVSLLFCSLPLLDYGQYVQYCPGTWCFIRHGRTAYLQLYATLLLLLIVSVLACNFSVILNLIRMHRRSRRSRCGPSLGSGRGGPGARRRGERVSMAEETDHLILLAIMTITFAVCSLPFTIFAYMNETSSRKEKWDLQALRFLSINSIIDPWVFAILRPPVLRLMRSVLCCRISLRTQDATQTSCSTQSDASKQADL
# Protocol: as §1, §2
# [8] = biological target: T3, gastric inhibitory polypeptide receptor (GIPR); experiment: as above; details: agonist 1 μM, 10 min treatment
# Protocol: as §1, §2
# [9] = HEK293 cells overexpressing GPR75
molecule,measurement,setting,value
Nc1nc(Nc2ccccc2)nc2c1ncn2[C@@H]1O[C@H](CO)[C@@H](O)[C@H]1O [CV1808],cAMP accumulation,[1],0.6 fmol cAMP/cell/10 min
vasoactive intestinal peptide (from UniProt P01282 125-152),cAMP accumulation (fmol cAMP/cell/10 min treatment with agonist) in Ctrl-PASMCs at 1 µM VIP (fmol cAMP/cell/10 min),[2],0.2
same,decrease in proliferation of PASMCs (0.1 nM-10 µM VIP),[2],50%
"C[C@H]1C(=O)O[C@@H]2CCN3CC=C(COC(=O)[C@](C)(O)[C@]1(C)O)[C@H]23 [MCT, Monocrotaline]",Fulton Index (weight of right ventricle / left ventricle plus septum),[3],0.34
Nc1ncnc2c1nc(Br)n2[C@@H]1O[C@@H]2COP(=O)(O)O[C@H]2[C@H]1O [8Br-cAMP],percentage of cells in the S phase of the cell cycle,smooth muscle cell,reduced
COc1ccc2c(c1)CC[C@@H]1[C@@H]2CC[C@]2(C)[C@@H](NCCCCCCN3C(=O)C=CC3=O)CC[C@@H]12 [U73122],RANTES-mediated increase in Ca2+ mobilization,"GPR75; GPR75-HEK293 cells, PLC inhibitor",block
CCCCC[C@H](O)/C=C/[C@@H]1[C@H]2C/C(=C/CCCC(=O)O)O[C@H]2C[C@H]1O [epoprostenol],cAMP accumulation,[4],0.4 fmol cAMP/cell/10 min
Vasoactive Intestinal Peptide [VIP],decrease of PASMC proliferation,"Ctrl-PASMCs; 0.1 nM-10 μM VIP, FIG. 4C",roughly 50%
same,exercise capacity,PAH-patients,improve
same,hemodynamics,PAH-patients,improve
Neuropeptide Y,proliferation of human PASMCs,human PASMCs,stimulates proliferation
CC[C@H](C)[C@@H]1NC(=O)[C@H](Cc2ccc(O)cc2)NC(=O)[C@@H](N)CSSC[C@@H](C(=O)N2CCC[C@H]2C(=O)N[C@@H](CC(C)C)C(=O)NCC(N)=O)NC(=O)[C@H](CC(N)=O)NC(=O)[C@H](CCC(N)=O)NC1=O [oxytocin],cAMP accumulation (forskolin-stimulated),oxytocin receptor,decreased cAMP accumulation
same,PASMC proliferation,"Ctrl-PASMCs; 0.1 nM-10 μM, cells in serum free media over 24 hr, FIG. 4D",promoted PASMC proliferation
same,mean PAP,[5],increases
same,pulmonary vascular resistance (PVR),[5],increases
GIP (from UniProt P09681 52-93) (peptide),cAMP accumulation (fmol cAMP/cell/10 min treatment with agonist) in Ctrl-PASMCs at 1 µM GIP (fmol cAMP/cell/10 min),[6],0.2
CCCC1([C@H](O)C/C=C/[C@H]2[C@H](O)CC(=O)[C@@H]2CCCCCCC(=O)OC)CCC1 [butaprost],cAMP accumulation,[7],0.4 fmol cAMP/cell/10 min
GIP: receptor agonist used for the gastric inhibitory polypeptide receptor (GIPR),cAMP accumulation,[8],0.2 fmol cAMP/cell/10 min
"RANTES: Regulated upon Activation, Normal T-cell Expressed, and Secreted chemokine; proposed ligand for GPR75 (protein, UniProt P13501 24-91, looked up) C-C motif chemokine 5: SPYSSDTTPCCFAYIARPLPRAHIKEYFYTSGKCSNPAVVFVTRKNRQVCANPEKKWVREYINSLEMS",Ca2+ mobilization,GPR75; [9],stimulation
same,inositol triphosphate (IP3),GPR75; [9],increase
